Read-outs that look alike come from different tables or passages of the source.
Tests used:
TRPM8 receptor = target: T1, TRPM8 receptor (Homo sapiens, UniProt Q7Z2W7); assay: Receptor assay, fluorescence (Relative Fluorescence Units), ChanTest; assay type: cell-based; details: FIG. 4
T1 construct: ChanTest Corporation
Method: FIG. 4 is a graph of fluorescence (Relative Fluourescence Units; % Maximum) of test compounds, as a function of the logarithm of the concentration of the test compound (μM). The compounds tested were 2-4 (circle), 2-5 (square), 2-6 (inverted triangle), 2-7 (diamond), and 2-8 (star), representing the 1 [di-sec-butyl-phosphinoyl]-butane, pentane, hexane, heptane, and octane analogs, respectively. The receptor assays were conducted by ChanTest Corporation, Cleveland, Ohio 44128. […] The 95% confidence intervals of 2-5 to 2-8 overlap.
(§1) FIG. 5. illustrates the activity of 2-5 on cells transfected with the TRPA1 and TRPV1. TRPA1 and TRPV1 receptors mediate nociception: that is, stimulation of these receptors results in irritation and pain. Capsaicin and mustard oil are the positive control substances for TRPV1 and TRPA1, respectively.

TRPA1 = target: T2, TRPA1 (Homo sapiens, UniProt O75762); assay: Activity on TRPA1 transfected cells; assay type: cell-based; details: FIG. 5; mustard oil positive control
T2 construct: expressed in transfected cells
Description: as §1

TRPV1 = target: T3, TRPV1 (Homo sapiens, UniProt Q8NER1); assay: Activity on TRPV1 transfected cells; assay type: cell-based; details: FIG. 5; capsaicin positive control
T3 construct: expressed in transfected cells
Description: as §1

ocular surface = assay: Periocular spray of 2-5 over the closed eye in normal subjects and dry eyes syndrome patients; assay type: in vivo, human
Method: Sensory discomfort of the eye is a conspicuous symptom in patients diagnosed with “dry eyes disease.” The study described below was conducted by Prof. K. C. Yoon of the Department of Ophthalmology, Chonnam National University Medical School, Gwangju, South Korea. Prof. Yoon is an acknowledged expert on the investigation of dry eyes disease and has published extensively on this subject [e.g. Yoon, K.-C. et al. Application of umbilical cord serum eyedrops for the treatment of dry eye syndrome. Cornea 25, 268-72 (2006). Yoon, K.-C. et al. Comparison of autologous serum and umbilical cord serum eye drops for dry eye syndrome. Am. J. Ophthalmol. 144, 86-92 (2007).] The methods used in these two publications were also used in the experiments described below. This report was presented as an Oral Communication entitled “Effect of a periocular spray of a TRPM8 agonist on the ocular surface” at the 110th Meeting of the Korean Ophthalmological Society, Bexco, Busan, Korea on Apr. 13, 2014.
2-5 was prepared as a 2 mg/mL solution in distilled water and administered as a spray [sprayed volume of ˜0.1 mL] over the closed right eye of test subjects. There were 20 subjects in the normal group [9 males/11 females] and 17 subjects in the group with defined “dry eyes syndrome” [7 males/10 females]. Exclusion criteria for patient selection was age of <18 years, systemic medication that may affect tear secretion, previous punctal plug insertion, history of contact lenses use, previous ocular surgery or trauma, pregnancy or lactation, and ocular or systemic disease. The average age of the subjects was 29 years, and both groups had normal values for visual acuity, intraocular pressure, and corneal sensitivity [Cochet-Bonnet esthesiometry, measured with a microfilament]. […] The score for keratoepitheliopathy [National Eye Institute system] was 0.1±0.3 and 2.5±1.7, in the normal vs the “dry eyes syndrome” group.
Subjective symptoms were graded on a numerical score. A visual analog scale score [0 to 10 units] was used for grading the degree of soothing and cooling sensation on the ocular surface. For symptoms of the dry eyes syndrome, a scale of zero to four was used, with zero representing no symptoms and four representing very severe symptoms that caused discomfort and interfered with normal activities. These methods have been described in detail elsewhere and are incorporated by reference [Yoon, K.-C. et al. Application of umbilical cord serum eyedrops for the treatment of dry eye syndrome. Cornea 25, 268-72 (2006). Yoon, K.-C. et al. Comparison of autologous serum and umbilical cord serum eye drops for dry eye syndrome. Am. J. Ophthalmol. 144, 86-92 (2007)].
The onset was less than 3 min and reached maximal effect in the first 10 min. The mean duration of cooling was 42±8 min and all cooling sensations disappeared by 1 hr. For patients previously diagnosed with “dry eyes” disease there was a reduction of symptom score from 1.8 to 0.5, a highly significant event [P<0.001]. […] However, the magnitude of the effect was not considered clinically significant and may have been due to increased sensitivity of the dry eyes patients to foreign solutions applied to the ocular surface. The keratoepitheliopathy score was not affected by treatment.
The mechanical sensitivity of the cornea, measured with the Cochet-Bonnet esthesiometer, was not affected in all patients, in the 1.5 hr test period with […], spaced 30 min apart. This is an important observation from the viewpoint of safety in use, because numbness of the corneal surface will increase risks of eye injury from foreign materials.

skin of the eyelids = assay: Irritation when applied in vivo to the skin of the eyelids; details: compared among analogs 2-4 to 2-8
human ocular surface = details: for Irritancy, delivery unit: wiped across the orbital skin
Method: Subjects received different ethanol-water concentrations either in eye drops or via the delivery unit. Subjects were asked to report irritation, stinging, burning sensations, or pain in the 2 to 5 min after application. The intensity of the subjective eye sensation was rated as 0, 1, 2 or 3 with: 0 as no effect; 1 as slight; 2 as a clear-cut effect; and 3 as severe.

[1] = dry eyes group, first 30 min, not considered clinically significant
[2] = ethanol 5% wt/vol in water, scale 0-3
[3] = ethanol 10% wt/vol in water, scale 0-3

T1 sequence (Q7Z2W7 whole entry): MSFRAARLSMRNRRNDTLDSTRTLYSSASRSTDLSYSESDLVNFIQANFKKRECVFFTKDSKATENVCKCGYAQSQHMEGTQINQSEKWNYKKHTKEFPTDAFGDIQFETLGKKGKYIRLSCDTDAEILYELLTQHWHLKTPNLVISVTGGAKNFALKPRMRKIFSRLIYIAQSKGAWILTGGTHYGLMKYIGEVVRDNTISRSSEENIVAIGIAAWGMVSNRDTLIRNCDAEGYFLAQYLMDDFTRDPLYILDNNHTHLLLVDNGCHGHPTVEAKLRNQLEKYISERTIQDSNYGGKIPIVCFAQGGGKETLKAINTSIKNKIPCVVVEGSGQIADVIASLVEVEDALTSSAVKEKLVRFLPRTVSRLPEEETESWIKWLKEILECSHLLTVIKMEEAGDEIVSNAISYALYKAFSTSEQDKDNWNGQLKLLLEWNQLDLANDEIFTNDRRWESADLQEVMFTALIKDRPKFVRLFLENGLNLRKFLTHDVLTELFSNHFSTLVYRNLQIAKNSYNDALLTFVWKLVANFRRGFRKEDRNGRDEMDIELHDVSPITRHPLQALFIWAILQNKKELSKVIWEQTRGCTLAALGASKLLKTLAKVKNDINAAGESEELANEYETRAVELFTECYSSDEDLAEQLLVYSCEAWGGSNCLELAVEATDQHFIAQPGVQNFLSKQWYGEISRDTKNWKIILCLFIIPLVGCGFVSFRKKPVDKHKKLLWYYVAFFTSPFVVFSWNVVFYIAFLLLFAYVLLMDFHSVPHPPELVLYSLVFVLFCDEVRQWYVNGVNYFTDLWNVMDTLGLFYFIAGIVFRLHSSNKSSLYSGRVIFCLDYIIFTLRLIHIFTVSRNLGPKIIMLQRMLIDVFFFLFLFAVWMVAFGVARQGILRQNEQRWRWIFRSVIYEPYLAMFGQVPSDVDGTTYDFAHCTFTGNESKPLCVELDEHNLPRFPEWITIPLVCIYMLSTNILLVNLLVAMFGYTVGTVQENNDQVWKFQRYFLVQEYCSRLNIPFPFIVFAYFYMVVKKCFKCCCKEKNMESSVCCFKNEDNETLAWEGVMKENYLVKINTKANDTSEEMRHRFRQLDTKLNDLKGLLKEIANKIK
T2 sequence (O75762 whole entry, species assumed): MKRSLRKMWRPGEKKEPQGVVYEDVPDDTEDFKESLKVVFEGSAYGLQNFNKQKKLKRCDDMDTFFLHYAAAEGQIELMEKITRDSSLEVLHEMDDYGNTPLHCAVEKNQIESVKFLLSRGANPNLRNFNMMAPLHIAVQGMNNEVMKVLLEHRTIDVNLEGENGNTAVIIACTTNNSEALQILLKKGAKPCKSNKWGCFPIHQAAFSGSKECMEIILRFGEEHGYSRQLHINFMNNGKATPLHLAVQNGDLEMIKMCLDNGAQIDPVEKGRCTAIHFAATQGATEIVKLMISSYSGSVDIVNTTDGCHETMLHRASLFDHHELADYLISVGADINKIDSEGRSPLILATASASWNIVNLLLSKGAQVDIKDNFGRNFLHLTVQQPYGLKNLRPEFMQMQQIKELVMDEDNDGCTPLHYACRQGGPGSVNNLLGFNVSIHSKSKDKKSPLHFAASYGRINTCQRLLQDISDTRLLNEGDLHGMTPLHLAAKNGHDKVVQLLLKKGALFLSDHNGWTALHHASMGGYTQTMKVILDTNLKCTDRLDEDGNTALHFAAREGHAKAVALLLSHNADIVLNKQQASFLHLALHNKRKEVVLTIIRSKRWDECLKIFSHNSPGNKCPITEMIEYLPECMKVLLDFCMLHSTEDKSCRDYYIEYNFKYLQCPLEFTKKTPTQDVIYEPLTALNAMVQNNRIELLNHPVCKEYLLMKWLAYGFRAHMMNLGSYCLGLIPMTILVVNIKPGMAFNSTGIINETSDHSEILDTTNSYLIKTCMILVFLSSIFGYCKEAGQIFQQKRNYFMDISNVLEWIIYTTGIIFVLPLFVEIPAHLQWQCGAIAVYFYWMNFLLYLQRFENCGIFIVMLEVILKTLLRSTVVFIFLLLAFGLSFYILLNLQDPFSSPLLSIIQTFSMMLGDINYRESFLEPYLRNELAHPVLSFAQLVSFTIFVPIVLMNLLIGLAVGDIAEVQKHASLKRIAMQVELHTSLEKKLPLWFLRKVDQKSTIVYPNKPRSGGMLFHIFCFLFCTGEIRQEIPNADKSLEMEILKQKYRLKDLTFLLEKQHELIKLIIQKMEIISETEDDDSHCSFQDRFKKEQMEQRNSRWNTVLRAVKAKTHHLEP
T3 sequence (Q8NER1 whole entry, species assumed): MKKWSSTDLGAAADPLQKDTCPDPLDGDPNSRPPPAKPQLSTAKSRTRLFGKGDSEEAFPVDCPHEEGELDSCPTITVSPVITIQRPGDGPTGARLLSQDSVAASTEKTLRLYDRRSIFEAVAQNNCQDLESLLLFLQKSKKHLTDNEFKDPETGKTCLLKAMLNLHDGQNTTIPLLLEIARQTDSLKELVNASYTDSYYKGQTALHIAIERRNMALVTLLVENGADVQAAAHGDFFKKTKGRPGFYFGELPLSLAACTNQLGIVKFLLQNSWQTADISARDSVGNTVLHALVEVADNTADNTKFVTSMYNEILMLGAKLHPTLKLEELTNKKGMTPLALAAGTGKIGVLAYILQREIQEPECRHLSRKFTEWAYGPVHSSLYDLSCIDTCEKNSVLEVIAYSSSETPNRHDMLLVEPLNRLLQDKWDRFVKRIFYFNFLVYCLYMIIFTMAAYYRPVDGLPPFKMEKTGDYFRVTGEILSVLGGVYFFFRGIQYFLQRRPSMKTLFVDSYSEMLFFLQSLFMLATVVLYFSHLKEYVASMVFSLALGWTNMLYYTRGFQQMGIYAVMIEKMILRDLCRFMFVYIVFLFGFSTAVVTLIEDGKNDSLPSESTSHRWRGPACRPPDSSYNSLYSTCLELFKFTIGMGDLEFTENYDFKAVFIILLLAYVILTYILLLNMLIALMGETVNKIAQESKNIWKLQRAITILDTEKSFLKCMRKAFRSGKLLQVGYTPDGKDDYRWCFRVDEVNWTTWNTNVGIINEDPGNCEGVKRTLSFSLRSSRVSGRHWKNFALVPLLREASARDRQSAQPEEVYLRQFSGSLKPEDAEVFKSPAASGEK

## CCCCP(=O)(C(C)CC)C(C)CC (centres unmarked) [2-4, 1 [di-sec-butyl-phosphinoyl]-butane]
TRPM8 receptor
  Potency relative to 1-menthol in the same assay: 0.3 ×

## CCCCCP(=O)(C(C)CC)C(C)CC (centres unmarked) [2-5, 1-di(sec-butyl) phosphinoyl-pentane]
TRPA1
  Stimulation of TRPA1: does not stimulate
TRPM8 receptor
  Potency relative to 1-menthol in the same assay: 2.2 ×
TRPV1
  Stimulation of TRPV1: does not stimulate
Ocular surface; 2 mg/mL in distilled water, spray ~0.1 mL over closed eye
  Soothing and cooling sensations on the ocular surface after blinking: all subjects felt soothing and cooling sensations
Ocular surface; 2 mg/mL spray over closed eye
  Mean duration of cooling: 42 ± 8 min
  Onset of cooling: less than 3 min
  Time by which all cooling sensations disappeared: ≤ 1 h
  Time of maximal effect: ≤ 10 min
Ocular surface; after treatment
  Keratoepitheliopathy score: not affected
Ocular surface; all patients, 1.5 hr test period, 5 points of measurement
  Mechanical sensitivity of the cornea (Cochet-Bonnet esthesiometer): not affected
Ocular surface; [1]
  Tear Film BUT: slightly elevated
  Tear secretion rates: slightly elevated
Ocular surface; dry eyes patients, scale zero to four, reduced from 1.8, P<0.001
  Symptom score after treatment: 0.5
Ocular surface; normal group
  Tear Film BUT: not significantly affected
  Tear secretion rates: not significantly affected
Skin of the eyelids
  Irritation when applied to the skin of the eyelids: minimal irritation

## CCCCCCP(=O)(C(C)CC)C(C)CC (centres unmarked) [2-6, 1 [di-sec-butyl-phosphinoyl]-hexane]
TRPM8 receptor
  Potency relative to 1-menthol in the same assay: 4-9 ×

## CCCCCCCCP(=O)(C(C)CC)C(C)CC (centres unmarked) [2-8, 1 [di-sec-butyl-phosphinoyl]-octane]
TRPM8 receptor
  Potency relative to 1-menthol in the same assay: 3.0 ×

## CCO [Ethanol]
Human ocular surface; 5% ethanol solution as an eye drop
  Sensation upon delivery: clearly aversive as an eye drop, producing stinging and pain upon delivery
Human ocular surface; 20% applied to the eye with a wipe
  Sensation upon delivery: mild burning sensations in two subjects
Human ocular surface; ethanol 2.5% wt/vol in water, scale 0-3 (0 no effect, 3 strongly irritating), N = 8 experiments
  Irritancy, eye drops: 0
Human ocular surface; ethanol 2.5% wt/vol in water, scale 0-3
  Irritancy, delivery unit: 0
Human ocular surface; [2]
  Irritancy, eye drops: +2
  Irritancy, delivery unit: 0
Human ocular surface; [3]
  Irritancy, eye drops: +3
  Irritancy, delivery unit: 0
Human ocular surface; ethanol 20% wt/vol in water, scale 0-3
  Irritancy, delivery unit: +1
Human ocular surface; ethanol/water
  Change in decreased sensitivity to irritation, swab method versus eye drops: ~4 fold

— patent publication US20150290029A1, “Delivery Systems for Agents to treat Ocular Discomfort” (priority 2014, published 2015)
